28 molecules from patent US20140088144A1, “INHIBITING MICROBIAL INFECTIONS” (THE UNIVERSITY OF KANSAS, priority 2012, published 2014) can be followed below.

Molecules are shown by their SMILES.

The target in test [1] is T1, RhaS (Escherichia coli, UniProt P09377). The test is described as follows: % Inhibition at 82.5 μM, RhaS. It counts as cell-based, E. coli.
The target of another test is Rns (Escherichia coli, UniProt P16114). The test can be described thus: % Inhibition at 82.5 μM, Rns. It counts as cell-based, Enterotoxigenic E. coli. The following applies: for inhibition at 82.5 µM: read-out: % Inhibition at 82.5 μM Rns.
Sequence of Rns (P16114 whole entry, the tested form may be a part): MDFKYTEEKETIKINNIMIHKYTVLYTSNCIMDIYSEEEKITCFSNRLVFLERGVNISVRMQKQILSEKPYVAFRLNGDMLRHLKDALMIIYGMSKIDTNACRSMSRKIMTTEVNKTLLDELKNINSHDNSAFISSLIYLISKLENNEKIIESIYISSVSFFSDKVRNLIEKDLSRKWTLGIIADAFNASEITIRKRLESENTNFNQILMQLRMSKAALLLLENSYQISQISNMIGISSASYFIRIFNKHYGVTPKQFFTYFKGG
Test [2] addresses T1, RhaS. The test is described as follows: In vivo dose-response, RhaS-activated rhaB-lacZ reporter fusion (β-galactosidase). In kind it is cell-based, E. coli. The following applies: full-length RhaS, rhaB-lacZ. An excerpt:
For dose-response studies, a rhaB-lacZ reporter strain was designed that allowed IPTG induction of RhaS or RhaS(163-278) expression from pHG165 (and thus rhaB-lacZ expression). The strain was constructed by introducing malP::lacIq into SME3000 via phage P1vir-mediated generalized transduction. First, SME3000 was transduced with Δcrp-3 zhc-511::Tn10 from SME1403, selecting for tetracycline resistance and screening for sorbitol deficiency (indicating Δcrp) using MacConkey sorbitol. SME3000 Acrp-3 zhc-511::Tn10 was transduced with crp^+ malP::lacI^q from SG22166, selecting for growth on minimal sorbitol and screening for maltose deficiency (indicating malP::lacI^q) using MacConkey maltose. Finally, SME3000 malP::lacI^q zhc-511::Tn10 was transduced with recA::cat from SME1048 by selecting for chloramphenicol resistance, to make strain SME3632.
(§1) The top hit identified in the screen was 1-ethyl-4-(nitromethyl)-3-quinolin-2-yl-4H-quinoline, Compound 2. The closely related compound, Compound 1,1-butyl-4-(nitromethyl)-3-quinolin-2-yl-4H-quinoline, was obtained from eMolecules, Inc. (Solana Beach, Calif.; catalog #3761-0013) or Princeton BioMolecular Research (Princeton, N.J.; catalog #OSSL—051168), with the Princeton named used here. […] Lysis/ONPG buffer (50 μL, as in Primary Screen) was added to each well and the plate was immediately placed into a PowerWave XS plate reader (BioTek Instruments, Inc., Winooski, Vt.), set to read the OD420 of each well every 15 min for 4 hr. […] Due to differences in kinetics of lacZ reporter expression, the rhaB-lacZ strains were analyzed at 4 hours and the hts-lacZ strain was analyzed at 1 hr. Percent activity was calculated for each condition as described above, using the single time point with appropriate OD420 levels for each strain. […] IC50 and maximal inhibition values were calculated using the XLfit add-in for Microsoft Excel (ID Business Solutions, Guildford, UK), and graphs were drawn using Prism (GraphPad, La Jolla, Calif.).

For another test, the target named is VirF (Shigella flexneri, UniProt P0A2T1). The test can be described thus: % Inhibition at 82.5 μM, VirF. It counts as cell-based. The following applies: for inhibition at 82.5 µM: read-out: % Inhibition at 82.5 μM VirF, 82.5 μM.
Sequence of VirF (P0A2T1 whole entry, the tested form may be a part): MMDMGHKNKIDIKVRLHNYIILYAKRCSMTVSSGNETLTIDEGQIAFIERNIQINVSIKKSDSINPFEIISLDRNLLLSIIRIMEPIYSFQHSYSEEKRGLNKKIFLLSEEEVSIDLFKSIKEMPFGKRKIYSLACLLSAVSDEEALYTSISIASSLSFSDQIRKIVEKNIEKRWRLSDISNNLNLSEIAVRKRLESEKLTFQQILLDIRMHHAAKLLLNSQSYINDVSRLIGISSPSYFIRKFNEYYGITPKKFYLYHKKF
The test system of test [3] is LacI-repressed hts-lacZ fusion. The test is described as follows: LacI-repressed hts-lacZ control reporter fusion (β-galactosidase). It counts as cell-based, E. coli. The conditions noted are these: hts-lacZ control (SME3359).
Source text: The control strain for the secondary high-throughput screen and subsequent experiments was SME3359, and carries the LacI-repressed fusion and LacI-expressing pHG165lacI. The fusion consists of lacZ under the control of an artificial promoter (Phts) with an induced expression level similar to that of the induced rhaBAD operon. Phts is regulated by Lad and induced with IPTG. The Phts core promoter elements include a near-consensus −35 sequence and a −10 sequence followed by a lacO1 operator sequence that overlaps the transcription start site with the same spacing as lacO1 at lacZYA. To construct the upstream half of Phts, oligo 2829 was annealed to oligo 2788 and the primers were extended using the Expand High Fidelity PCR System (Roche Applied Science, Indianapolis, Ind.). The downstream half of the Phts promoter was constructed by similarly annealing and extending oligos 2789 and 2790.
as §1, with “2.” for “2. The closely related compound, Compound 1,1-butyl-4-(nitromethyl)-3-quinolin-2-yl-4H-quinoline, was obtained from eMolecules, Inc. (Solana Beach, Calif.; catalog #3761-0013) or Princeton BioMolecular Research (Princeton, N.J.; catalog #OSSL—051168), with the Princeton named used here.”
In vivo dose-response assays were performed using a procedure described previously. […] Bacterial cultures were mixed with varying concentrations of SE-1 (2.2% DMSO, final), induced with 6.5 mM IPTG for 3 h at 37° C., lysed and β-galactosidase activity was measured. […] IC50 values were calculated and graphs were drawn using Prism (GraphPad, La Jolla, Calif.).

T1 sequence (P09377 whole entry): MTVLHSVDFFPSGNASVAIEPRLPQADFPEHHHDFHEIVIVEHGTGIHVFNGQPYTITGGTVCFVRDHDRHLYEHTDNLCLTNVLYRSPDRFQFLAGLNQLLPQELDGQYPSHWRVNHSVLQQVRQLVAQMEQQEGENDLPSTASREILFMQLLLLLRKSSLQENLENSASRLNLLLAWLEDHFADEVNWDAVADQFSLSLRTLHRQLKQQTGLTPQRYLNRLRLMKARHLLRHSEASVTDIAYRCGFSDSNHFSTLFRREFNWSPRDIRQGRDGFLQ

As a reminder, the inhibition is the share of the control response that was lost under treatment. Regarding `CCN1C=C(c2ccc3ccccc3n2)C(C[N+](=O)[O-])c2ccccc21` (centres unmarked) [Compound 2, 1-ethyl-4-(nitromethyl)-3-quinolin-2-yl-4H-quinoline], the inhibition at 82.5 µM came to 90% at RhaS [1], 60% at Rns and 100% at VirF. Further, on RhaS [2], the “inhibition of the RhaS-activated fusion” value is “particularly robust, dose-dependent inhibition”. Also, the “inhibition of the LacI-repressed fusion” value in test [3] was “substantially less inhibition”.
Take `CCCCN1C=C(c2ccc3ccccc3n2)C(C#N)c2ccccc21` (centres unmarked) [Compound A01]: the inhibition at 82.5 µM is 30% at RhaS [1], 20% at Rns and 20% on VirF.
For the molecule `CCN1C=C(c2ccc3ccccc3n2)C(C#N)c2ccccc21` (centres unmarked) [Compound A1], the inhibition at 82.5 µM against RhaS [1] is 30%; on Rns, 30%; on VirF, 20%.
Turning to `CCOC(=O)C(C(=O)OCC)C1C(c2ccc3ccccc3n2)=CN(C)c2ccccc21` (centres unmarked) [Compound A2], the inhibition at 82.5 µM is 80% against RhaS [1], 80% on Rns and 100% at VirF.
In the case of `CCCCN1C=C(c2cccc(C)n2)C(C#N)c2ccccc21` (centres unmarked) [Compound A03], the inhibition at 82.5 µM amounted to 40% at RhaS [1], 10% on Rns and 0% at VirF.
In the same order, the values of `CCOC(=O)CN1C=C(c2ccc3ccccc3n2)C(C[N+](=O)[O-])c2ccccc21` (centres unmarked) [Compound A3] are 0%, 30% and 10%.
On to `CCCCN1C=C(c2ccc3ccccc3n2)C(C[N+](=O)[O-])c2ccccc21` (centres unmarked) [Compound A07], for which the inhibition at 82.5 µM against RhaS [1], on Rns and at VirF was 90% throughout.
For the molecule `O=[N+]([O-])CC1C(c2ccc3ccccc3n2)=CN(Cc2ccc(Cl)cc2)c2ccccc21` (centres unmarked) [Compound A08], the inhibition at 82.5 µM against RhaS [1] stood at 40%; at Rns, 30%; on VirF it was 40%.
For the molecule `CCCCN1C=C(c2cccc(C)n2)C(C[N+](=O)[O-])c2ccccc21` (centres unmarked) [Compound A09], the inhibition at 82.5 µM stood at 50% against RhaS [1], 0% on Rns and 10% on VirF.
Regarding `Cc1cccc(C2=CN(Cc3ccc(Cl)cc3)c3ccccc3C2C[N+](=O)[O-])n1` (centres unmarked) [Compound A10], the inhibition at 82.5 µM against RhaS [1] is 30%; on Rns, 0%; at VirF, 10%.
For `CCCCN1C=C(c2ccc3ccccc3n2)Cc2ccccc21` [Compound A21], the figures for the inhibition at 82.5 µM against RhaS [1], on Rns and on VirF were 60%, 80% and 70%, respectively.
Take `CCCCN1C=C(c2ccc3ccccc3n2)C(C)c2ccccc21` (centres unmarked) [Compound A23]: the values for the inhibition at 82.5 µM on RhaS [1], on Rns and at VirF were 0%, 10% and 30%, respectively.
In the same order, the values of `C[n+]1cc(-c2ccc3ccccc3n2)cc2ccccc21` [Compound A24] are 94%, 90% and 100%.
In the same order, the values of `C=CCCC[n+]1cc(-c2ccc3ccccc3n2)cc2ccccc21` [Compound A25] are 80%, 100% and 100%.
Take `CN1C=C(c2ccc3ccccc3n2)C(C#N)c2ccccc21` (centres unmarked) [Compound C4]: the values for the inhibition at 82.5 µM at RhaS [1], on Rns and at VirF were 70%, 80% and 90%, respectively.
For the molecule `CN1C=C(c2ccc3ccccc3n2)C(c2c(-c3ccccc3)[nH]c3ccccc23)c2ccccc21` (centres unmarked) [Compound D2], the inhibition at 82.5 µM on RhaS [1] turned out to be 10%; on Rns, 10%; at VirF, 40%.
For the molecule `O=[N+]([O-])CC1C(c2ccc3ccccc3n2)=CN(Cc2ccccc2)c2ccccc21` (centres unmarked) [Compound D3], the values for the inhibition at 82.5 µM against RhaS [1], on Rns and on VirF were 60%, 60% and 70%, respectively.
As to `CN1C=C(c2ccc3ccccc3n2)C(C[N+](=O)[O-])c2ccccc21` (centres unmarked) [Compound E1], the inhibition at 82.5 µM amounted to 90% against RhaS [1], 80% at Rns and 100% on VirF.
For orientation: % Inhibition means the share of the control response that was lost under treatment. For the molecule `Clc1ccc(C[n+]2cc(-c3ccc4ccccc4n3)cc3ccccc32)cc1.[Br-]` [Compound I01], the “% Inhibition at 82.5 μM RhaS” value at RhaS [1] is given as 50%. The “% Inhibition at 82.5 μM Rns” value at Rns (82.5 μM) is listed as 50%. In addition, the “% Inhibition at 82.5 μM VirF” value on VirF (82.5 μM) is 50%.
In the case of `CCCC[n+]1cc(-c2ccc3ccccc3n2)cc2ccccc21` [Compound I02], the inhibition at 82.5 µM against RhaS [1], on Rns and on VirF was 90% in each case.
For `Clc1ccc(C[n+]2cc(-c3ccc4ccccc4n3)cc3ccccc32)cc1` [Compound I03], the inhibition at 82.5 µM on RhaS [1] worked out at 60%; at Rns, 50%; at VirF, 60%.
As for `CC(C)[n+]1cc(-c2ccc3ccccc3n2)cc2ccccc21` [Compound I10], the figures for the inhibition at 82.5 µM against RhaS [1], on Rns and at VirF were 80%, 90% and 100%, respectively.
As for `CCC[n+]1cc(-c2ccc3ccccc3n2)cc2ccccc21` [Compound I11], the figures for the inhibition at 82.5 µM at RhaS [1], at Rns and on VirF were 80%, 90% and 100%, respectively.
In the same order, the values of `CCCCCC[n+]1cc(-c2ccc3ccccc3n2)cc2ccccc21` [Compound I12] are 90%, 100% and 100%.
In the same order, the values of `CCCCCCCCC[n+]1cc(-c2ccc3ccccc3n2)cc2ccccc21` [Compound I13] are 100%, 100% and 100%.
On to `CCCC[n+]1cc(-c2ccc3ccccc3c2)cc2ccccc21` [Compound I14], for which the values for the inhibition at 82.5 µM against RhaS [1], on Rns and at VirF were 90%, 100% and 100%, respectively.
Regarding `C[n+]1sc(Nc2ccccc2)nc1-c1ccccc1` [JS01], the inhibition at 82.5 µM against RhaS [1], at Rns and at VirF was 100% in each case.
As to `C[n+]1ccccc1/C=C/c1ccc(Br)cc1` [JS03], the inhibition at 82.5 µM on RhaS [1] turned out to be 20%; on Rns it was 10%; at VirF it was 50%.
